Data published in article doi:10.1101/2025.09.18.677102, “Genomic plasticity drives olfactory adaptation in a pest fly” (bioRxiv, 2025).

Biological target: T1, DsuzOr22a (Drosophila suzukii, UniProt A0AB39ZTG6)
T1 construct: gene LOC108019602; full-length cDNA in pJFRC81 (GFP removed), UAS line expressed in D. melanogaster ab3A empty neuron (Or22ab-Gal4); with Odorant receptor coreceptor (Drosophila melanogaster, endogenous to the host neuron)
T1 sequence (A0AB39ZTG6 1-397): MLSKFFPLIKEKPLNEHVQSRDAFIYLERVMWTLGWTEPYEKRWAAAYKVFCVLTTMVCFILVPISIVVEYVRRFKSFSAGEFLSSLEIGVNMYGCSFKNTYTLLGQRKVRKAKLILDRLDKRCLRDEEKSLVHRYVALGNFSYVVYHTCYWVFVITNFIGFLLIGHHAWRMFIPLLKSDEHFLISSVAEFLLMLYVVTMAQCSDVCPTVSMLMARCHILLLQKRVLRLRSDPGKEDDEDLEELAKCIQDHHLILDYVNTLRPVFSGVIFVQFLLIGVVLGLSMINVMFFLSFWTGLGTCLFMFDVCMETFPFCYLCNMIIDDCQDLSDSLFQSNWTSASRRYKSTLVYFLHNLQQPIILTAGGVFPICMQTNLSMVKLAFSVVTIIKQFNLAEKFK
T1 sequence (Q9VNB5 1-486 partner): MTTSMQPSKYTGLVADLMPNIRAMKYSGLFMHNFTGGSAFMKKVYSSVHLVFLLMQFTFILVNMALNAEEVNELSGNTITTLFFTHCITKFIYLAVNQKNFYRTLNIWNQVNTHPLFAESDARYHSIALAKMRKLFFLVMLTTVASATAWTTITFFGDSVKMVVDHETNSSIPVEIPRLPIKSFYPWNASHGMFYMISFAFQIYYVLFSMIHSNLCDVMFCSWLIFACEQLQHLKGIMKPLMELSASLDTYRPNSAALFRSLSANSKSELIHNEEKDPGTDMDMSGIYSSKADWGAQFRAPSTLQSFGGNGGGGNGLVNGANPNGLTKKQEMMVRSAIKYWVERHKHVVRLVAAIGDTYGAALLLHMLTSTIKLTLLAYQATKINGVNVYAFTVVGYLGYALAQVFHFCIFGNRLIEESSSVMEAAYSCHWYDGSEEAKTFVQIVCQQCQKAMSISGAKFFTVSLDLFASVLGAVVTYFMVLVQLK
Assay: single sensillum recording, empty neuron
Assay type: cell-based
Settings: odorant 10^-4 dilution in hexane

| SMILES | responses (spikes/s) | responses (spikes/s) (also dilution series) |
| --- | --- | --- |
| CCCCOC(C)=O [butyl acetate] | toward several ripening fruit esters such as isobutyl acetate, butyl acetate, and isoamyl acetate |  |
| CC(=O)OCCC(C)C [isoamyl acetate] | toward several ripening fruit esters such as isobutyl acetate, butyl acetate, and isoamyl acetate |  |
| CC(=O)OCC(C)C [isobutyl acetate] |  | Or22a, which has shifted its tuning toward several ripening fruit esters such as isobutyl acetate |
